Our source for the zeta potential values is PMC9059851 (RSC Advances, 2019).

A short description of the data set: Zeta potential measurement. The note with it: NanoZS, solutions in pH 7.4 phosphate buffer. The data set is classed as physicochemical.

Consider `C[C@]12CC[C@H](O)C[C@H]1CC[C@@H]1[C@@H]2CC[C@]2(C)[C@@H](c3ccc(=O)oc3)CC[C@]12O` [bufalin], for which the zeta potential is reported as −0.55 mV.
